In assay [1] the target is T1, Recombinant human TYK2 catalytic domain (Homo sapiens, UniProt P29597).
T1 construct: Recombinant human TYK2 catalytic domain (amino acids 871-1187; catalog number 08-147) was purchased from Carna biosciences; purchased Carna Biosciences 08-147
T1 sequence (P29597 871-1187): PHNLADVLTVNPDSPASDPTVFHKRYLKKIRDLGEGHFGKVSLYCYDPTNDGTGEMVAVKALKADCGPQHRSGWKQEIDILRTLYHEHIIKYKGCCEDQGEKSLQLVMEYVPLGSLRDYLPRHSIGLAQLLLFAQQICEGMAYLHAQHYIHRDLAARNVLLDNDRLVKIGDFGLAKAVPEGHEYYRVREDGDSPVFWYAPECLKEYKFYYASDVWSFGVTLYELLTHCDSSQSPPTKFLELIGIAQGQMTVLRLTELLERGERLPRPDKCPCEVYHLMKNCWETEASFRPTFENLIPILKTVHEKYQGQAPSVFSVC
As to the kind of experiment: TYK2 inhibition assay (polyGT substrate). Format: biochemical. As for the experimental part: Recombinant human TYK2 catalytic domain (amino acids 871-1187; catalog number 08-147) was purchased from Carna biosciences. 5 ng of TYK2 was incubated with 12.5 μg polyGT substrate (Sigma catalog number P0275) in kinase reaction buffer (25 mM Hepes pH 7.2, 50 mM NaCl, 0.5 mM EDTA, 1 mM DTT, 5 mM MnCl2, 10 mM MgCl2, 0.1% Brij-35, 0.1 μM non-radioactive ATP, 0.125 μCi ^33P-gamma-ATP (GE Healthcare, catalog number AH9968) final concentrations) with or without 5 μL containing test compound or vehicle (DMSO, 1% final concentration), in a total volume of 25 μL, in a polypropylene 96-well plate (Greiner, V-bottom). After 90 min at 30° C., reactions were stopped by adding 25 μL/well of 150 mM phosphoric acid. […] 40 ^μL/well of Microscint-20 was added, the top of the plates was sealed and readout was performed using the Topcount (Perkin Elmer). Kinase activity was calculated by subtracting counts per min (cpm) obtained in the presence of a positive control inhibitor (10 μM staurosporine) from cpm obtained in the presence of vehicle. The ability of a test compound to inhibit this activity was determined as:
Percentage inhibition=((cpm determined for sample with test compound present−cpm determined for sample with positive control inhibitor) divided by (cpm determined in the presence of vehicle−cpm determined for sample with positive control inhibitor))*100. […]

Assay [2] concerns the target T2, JAK1 (Homo sapiens, UniProt P23458).
T2 construct: Recombinant human JAK1 (catalytic domain, amino acids 866-1154; catalog number PV4774) was purchased from Invitrogen; purchased Invitrogen PV4774
As to the kind of experiment: JAK1 Ki determination assay. It counts as biochemical. Particulars: Lineweaver-Burk, varying ATP; read-out: Ki against JAK1. On the procedure:
For the determination of Ki, different amounts of compound were mixed with the enzyme and the enzymatic reaction was followed as a function of ATP concentration. The Ki was determined by means of double reciprocal plotting of Km vs compound concentration (Lineweaver-Burk plot). 1 ng of JAK1 (Invitrogen, PV4774) is used in the assay. The substrate was 50 nM Ulight-JAK-1 (Tyr1023) Peptide (Perkin Elmer, TRF0121) The reaction is performed in 25 mM MOPS pH 6.8, 0.01%, 2 mM DTT, 5 mM MgCl2 Brij-35 with varying concentrations of ATP and compound. Phosphorylated substrate was measured using an Eu-labeled anti-phosphotyrosine antibody PT66 (Perkin Elmer, AD0068) as described in 1.1.2. Readout was performed on the envision (Perkin Elmer) with excitation at 320 nm and emission followed at 615 nm and 665 nm.

We go through one compound from US20130217722A1, “NOVEL COMPOUND USEFUL FOR THE TREATMENT OF DEGENERATIVE AND INFLAMMATORY DISEASES” (priority 2012, published 2013).

T2 sequence (P23458 866-1154): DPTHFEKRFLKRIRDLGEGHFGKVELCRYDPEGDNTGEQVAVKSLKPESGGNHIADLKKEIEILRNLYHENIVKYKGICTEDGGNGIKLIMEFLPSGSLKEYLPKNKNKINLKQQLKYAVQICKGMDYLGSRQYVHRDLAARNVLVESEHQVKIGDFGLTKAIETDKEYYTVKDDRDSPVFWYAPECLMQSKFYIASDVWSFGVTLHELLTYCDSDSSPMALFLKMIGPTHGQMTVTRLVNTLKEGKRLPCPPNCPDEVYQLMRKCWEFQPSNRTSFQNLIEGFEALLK

As for `CCc1cc(C2=CCN(C(=O)CC#N)CC2)ccc1N(C)c1cc2c(cn1)ncn2C` [Compound 1], in assay [1], the “JAK1 selectivity vs TYK2” value is 9 fold. Also, the Ki in assay [2] came to 3.69 nM.
